Patent US20190343817A1, “METHOD OF TREATING PAIN” (VERTEX PHARMACEUTICALS INCORPORATED, priority 2018, published 2019)

What was measured:
[1] = test system: subjects with pain following bunionectomy; test: Safety evaluations in the bunionectomy study (adverse events)
Source text: Safety evaluations included adverse events, clinical laboratory assessments, clinical evaluation of vital signs, electrocardiograms, and physical examinations.

[2] = test system: patients with chronic pain caused by small fiber neuropathy; test: Efficacy of Compound 1 for pain caused by small fiber neuropathy (randomized, double-blind, placebo-controlled, 6-week study); assay type: in vivo, human
Protocol: A randomized, double-blind, placebo-controlled, 6-week study that evaluated treatment with Compound 1 (Treatment Arm) or placebo (Placebo Arm) in patients with chronic pain caused by small fiber neuropathy was conducted.
Males and females between the ages of 18 and 80 years, inclusive, with small fiber neuropathy.
Compound 1 was administered orally in 250 mg capsules, prepared as described in Example 2.
The study included a 7-day run-in period, followed a 6-week treatment period. The subjects were randomized to a Placebo Arm (43 subjects) and a Treatment Arm (46 subjects) between the run-in period and the treatment period.
During the run-in period, subjects reported their average pain and sleep interference to establish a baseline NRS pain score and DSIS score.
During the treatment period, Compound 1 was administered to the subjects in the Treatment Arm every 24 hours (q24 h) in a dose of 1250 mg. Subjects in the Placebo Arm received placebo capsules.
Pain intensity was evaluated using an 11-point NRS. The 11-point scale ranged from 0 (no pain) to 10 (worst imaginable pain). From Day −7 through Week 6, subjects reported their average daily pain during the last 24 hours on the NRS via electronic diary.
Subjects reported pain interference with sleep using an 11-point scale ranging from 0 (none) to 10 (severe). The DSIS score was reported each morning in an electronic diary.
Subjects' impressions of their overall health status were reported on a 7-point scale from 1 (very much improved) to 7 (very much worse) at study visits.
NRS pain scores were averaged over weekly periods to reduce the impact on the analyses of individual high or low pain scores. The mean change from baseline in the weekly average of daily pain intensity on the 11-point NRS over the course of the treatment period for subjects in the Placebo and Treatment Arms is depicted graphically in FIG. 3. The mean change from baseline for those treated with Compound 1 compared to placebo was −1.09 (95% CI: −1.88 to −0.29) at Week 6.
The number and percentage of subjects with ≥30% and ≥50% reduction in the weekly average of daily pain intensity on the 11-point NRS at Week 6 is reported in Table 9. The total number of subjects for determining the percentage was based on subjects who had data at Week 6.
The total number of subjects for determining the percentage was based on subjects who had data at Week 6.

[3] = test system: subjects with pain following bunionectomy; test: Efficacy of Compound 1 in subjects with pain following bunionectomy (randomized, double-blind, placebo-controlled, 3-arm study); assay type: in vivo, human
Protocol: A randomized, double-blind, placebo-controlled, 3-arm, parallel-design study to evaluate the effect of Compound 1 on acute surgical pain was conducted. Bunionectomy is a well-established, multi-dose, surgical, acute pain model. A randomized, double-blind study design was selected to avoid observer bias and reduce symptoms or outcomes arising from the subjects' knowledge of treatment. A parallel design was considered most appropriate given the acute nature of bunionectomy surgery.
Male and female patients between the ages of 18 and 65 years (inclusive) with pain that is ≥4 on an 11-point Numeric Pain Rating Scale (NPRS) and is moderate or severe on the Verbal Categorical Rating Scale (VRS) after bunionectomy.
Investigational Drug: Compound 1. The investigational drug was administered orally in 250 mg capsules, prepared as described in Example 2. The investigational drug was administered every 12 hours (q12 h). The first dose was 1500 mg, and the remaining doses were 750 mg.
The reference drug was administered orally in 5 mg/325 mg capsules, supplied as over-encapsulated 5 mg/325 mg tablets. The reference drug was administered in a dose of 5 mg/325 mg every 6 hours (q6 h).
After a screening period, subjects received a primary unilateral first metatarsal bunionectomy repair on Day −1. A continuous popliteal sciatic block infusion (0.2% ropivacaine) was started after surgery, and remained in place until approximately 3 AM on Day 1. After removal of the popliteal sciatic block, each subject was randomized when the subject requested the first dose of study drug for pain relief and reported pain ≥4 on the NPRS and moderate or severe pain on the VRS.
A total of 243 subjects were randomized approximately 1:1:1 to the Investigational Arm (80 subjects), Reference Arm (81 subjects), and Placebo Arm (82 subjects). To maintain the blind, all subjects received the same number of capsules in a double-dummy design.
In the Investigational Arm, Compound 1 was administered every 12 hours (q12 h) in a first dose of 1500 mg, followed by three 750 mg doses. The final dose of Compound 1 was given 36 hours after the first dose.
Compound 1 placebo capsules were administered every 12 hours (q12 h).
NPRS scores are frequently used in bunionectomy studies and are recognized by the FDA as a valid pain intensity measure. On the 11-point NPRS, a score of 0 denoted no pain, and a score of 10 denoted the worst pain intensity imaginable. Subjects reported their pain on the 11-point NPRS immediately before their first dose of the study drug (baseline NPRS score) and 0.5, 1, 1.5, 2, 3, 4, 5, 6, 8, 12, 16, 20, 24, 28, 32, 36, 40, 44, and 48 hours (±5 minutes) after the first dose of study drug. Pain intensity also was recorded on the NPRS immediately before each administration of rescue medication. Pain intensity scores that were collected within 4 hours after a dose of rescue medication were taken as missing, and the missing values were imputed as the intensity recorded immediately before the administration of rescue medication.
The primary efficacy analysis was based on an analysis of covariance (ANCOVA) model. The Least Squares (LS) mean of the time-weighted sum of the NPRS pain intensity difference, relative to baseline, from 0 to 24 hours after the first dose (“SPID24”) for each study arm is reported in Table 3. SPID24 is a standard measure of acute pain. Higher SPID24 scores represent improvements in pain relief. “Treatment difference” refers to the difference in SPID24 between the Investigational and Reference Arms, respectively, and the Placebo Arm.
The LS mean of the time-weighted sum of the NPRS pain intensity difference, relative to baseline, from 2 to 24 hours after the first dose (“SPID22”) for each study arm is reported in Table 4. The analysis was based on an analysis of covariance (ANCOVA) model. “Treatment difference” refers to the difference in SPID22 between the Investigational and Reference Arms, respectively, and the Placebo Arm.

[4] = Week 6, 1250 mg q24 h, n/Total of subjects with data at Week 6 given
[5] = oral, Compound 1 1500 mg first dose then 750 mg q12 h, HB/APAP 5 mg/325 mg q6 h, ANCOVA
[6] = relative to baseline, 24 hours after first dose, Investigational Arm 80 subjects, Reference Arm 81 subjects

With `Cc1cc(F)ccc1Oc1cc(C(F)(F)F)ccc1C(=O)Nc1ccn(COP(=O)(O)O)c(=O)c1` [Compound 1, (4-(2-(4-fluoro-2-methylphenoxy)-4-(trifluoromethyl)benzamido)-2-oxopyridin-1(2H)-yl)methyl dihydrogen phosphate] the Tolerability ([1]; 1500 mg then 750 mg q12 h, oral) was “generally well tolerated”, the Gastrointestinal adverse events ([1]; percentage of arm) was 13% and the “Mean change from baseline NRS at week 6 (SE), weekly average of daily pain intensity on 11-point NRS” value ([2]; 1250 mg q24 h oral, 6 weeks, baseline 6.43, within-group) was −2.02 (0.27). For the same molecule, the “Subjects categorized as improved on the PGIC assessment” value [2, 4] was 39.5% (17/43), the “Subjects with ≥30% reduction in weekly average of daily pain intensity on 11-point NRS” value [2, 4] was 45.0% (18/40) and the “Subjects with ≥50% reduction in weekly average of daily pain intensity on 11-point NRS” value [2, 4] was 32.5% (13/40). For the same molecule, the “Mean change from baseline in weekly average of daily pain intensity (NRS), Compound 1 compared to placebo” value ([2]; Week 6, 1250 mg q24 h oral) was −1.09 (95% CI: −1.88 to −0.29), the “Mean change from baseline (SE) in weekly average of Daily Sleep Interference Scale (DSIS) score” value ([2]; Week 6, 1250 mg q24 h oral, baseline 5.94) was −1.78 (0.28) and the “Treatment difference versus placebo in NRS pain intensity” value ([2]; as early as Week 1, 1250 mg q24 h oral) was “greater than 1 point”. For the same molecule, the “Treatment difference in SPID24 versus Placebo Arm” value ([3]; 0 to 24 hours after first dose, same dosing as SPID24) was 29.50, the “Treatment difference in SPID48 versus Placebo Arm” value ([3]; 0 to 48 hours after first dose) was 62.79 and the “Treatment difference in SPID22 versus Placebo Arm” value ([3]; 2 to 24 hours after first dose) was 28.53. For the same molecule, the “Relief of acute pain compared to placebo (SPID24)” value ([3]; Investigational Arm, 1500 mg then 750 mg q12 h) was “statistically significant relief of acute pain compared to placebo”, the “Subjects who discontinued due to lack of efficacy” value ([3]; bunionectomy study, of subjects assigned to the arm) was 7.5% and the “SPID22 (SE): LS mean of time-weighted sum of NPRS pain intensity difference, relative to baseline, 2 to 24 hours after first dose” value [3, 5] was 34.95 (4.93). For the same molecule, the “SPID48 (SE): LS mean of time-weighted sum of NPRS pain intensity difference, relative to baseline, 0 to 48 hours after first dose” value [3, 5] was 112.22 (10.57), the “SPID24 (SE): LS mean of time-weighted sum of NPRS pain intensity difference, relative to baseline, 0 to 24 hours after first dose” value ([3]; oral, Compound 1 1500 mg first dose then 750 mg q12 h, HB/APAP 5 mg/325 mg q6 h, ANCOVA, higher = better pain relief) was 36.14 (5.15) and the “Subjects achieving ≥30% NPRS reduction at 24 hours” value [3, 6] was 46 (57.5) n (%). For the same molecule, the “Subjects achieving ≥50% NPRS reduction at 24 hours” value [3, 6] was 41 (51.3) n (%) and the “Subjects achieving ≥70% NPRS reduction at 24 hours” value [3, 6] was 22 (27.5) n (%).
